Each block holds one molecule with its values, some of them ahead of it.
Key:
monoclonal antibody 8F1 = test: Fluorescent antibody competition assay, IC50 determined with MoAb 8F1; assay type: binding, mouse
Experimental: (§1) All hybridoma media were screened for monoclonal anti-CS-045 antibodies on day 17 after fusion. The fluorescent antibody capture method was used and approximately 60 monoclonal antibodies were positive for binding of the CS-045 bPE fluorogen. Among these positive monoclonal antibodies, approximately 6 had binding affinity for 3 tested thiazolidinedione ISEs--LY 282449, [drawing 2] CS-045, and ciglitazone. Fifty percent binding inhibitory concentrations (IC50) were determined and data from 4 monoclonal antibodies are shown in Table 1 below.
(§2) Serial dilutions of test compound, fermentation broth, or tissue containing test compound or putative anti-idiotype culture supernatant (20 μl/well) were incubated 20 minutes in 96-well Pandex plates with the appropriate antibody (20 μl/well; 1 μg/ml) plus either goat anti-mouse IgG Latex beads or goat anti-rabbit IgG linked to polystyrene beads (IDEXX) (20 μl/well; 1:2 dilution). Fluorescent reference particles (IDEXX) were included in all assays to minimize well-to-well variation in filtration. […] Incubations were terminated after 20 minutes by vacuum filtration and the polystyrene particles retained on the Pandex filters were then washed twice with TBS-A buffer (described below) and solid phase fluorescence determined as described above.
(§3) Assay buffers typically contained bovine serum albumin (Sigma) at 0.2% (for monoclonal antibody assays) or 0.5% BLOTTO (non-fat dry milk for rabbit antibody assays). Percent inhibition of binding in test incubations was calculated in relationship to binding in control incubations in which no test compound was added using the following formula: % inhibition=[1-(fluorescence at 575/620 nm in test incubations divided by fluorescence at 575/620 nm in control incubations)×100)]. Concentrations of test compound in fermentation broth or plasma was calculated by interpolation from a standard curve generated with known concentrations of the appropriate compound as described in Taber et al., Clinical Chemistry, 37(2):254 (1991).

monoclonal antibody 8D6 = test: Fluorescent antibody competition assay, IC50 determined with MoAb 8D6; assay type: binding, mouse
Experimental: as §1, §2, §3

13E3 F(ab')2 fragments = test: ELISA competitive inhibition between CS-045 and anti-idiotypic antibodies on 13E3 F(ab')2 fragments; assay type: binding, mouse; conditions: 0-200 μM CS-045; FIG. 3
Experimental: To test whether or not CS-045 could, in turn, displace these anti-idiotypicantibodies, 0.3 μg/well of 13E3 F(ab')2 fragments were coated onto microtiter plates and blocked with 1% BLOTTO (non-fat dry milk). Between 0-200 μM of CS-045 was added to duplicate wells. After approximately two hours at room temperature, wells were washed with BLOTTO and 500 ng of anti-idiotypic antibody 2E5 or 7E7 was added for approximately 1 hour. Goat anti-mouse (Fc -specific) conjugated with horseradish peroxidase was added and, after 30 minutes, washed 3 times with BLOTTO. A peroxidase substrate, tetramethylbenzidine (Kirkegaard and Perry Laboratories, Gaithersberg, Md.) was added and color was developed for approximately 30 minutes at room temperature.

monoclonal antibody 10E1 = test: Fluorescent antibody competition assay, IC50 determined with MoAb 10E1; assay type: binding, mouse
Experimental: as §1, §2, §3

monoclonal antibody 13E3 [1] = test: Fluorescent antibody competition assay, IC50 determined with MoAb 13E3; assay type: binding, mouse
Experimental: as §1, §2, §3

monoclonal antibody 13E3 [2] = test: High-volume screen, fluorescent antibody competition assay (inhibition of binding of CS-045 bPE); set-up: species or system mouse; conditions: for % inhibition in screen: approximately 2 μg/ml final concentration, CS-045 bPE binding to 13E3; for IC50: non-thiazolidinedione hits from high-volume screen
Experimental: (§4) Serial dilutions of test compound, fermentation broth, or tissue containing test compound or putative anti-idiotype culture supernatant (20 μl/well) were incubated 20 minutes in 96-well Pandex plates with the appropriate antibody (20 μl/well; 1 μg/ml) plus either goat anti-mouse IgG Latex beads or goat anti-rabbit IgG linked to polystyrene beads (IDEXX) (20 μl/well; 1:2 dilution). Fluorescent reference particles (IDEXX) were included in all assays to minimize well-to-well variation in filtration. Fluorescent CS-045 bPE or LY 301318 bPE (20 μl/well; 1:2,000 dilution) was then added to the wells. Incubations were terminated after 20 minutes by vacuum filtration and the polystyrene particles retained on the Pandex filters were then washed twice with TBS-A buffer (described below) and solid phase fluorescence determined as described above.
as §3
The fluorescent antibody competition assay for high-volume screening was adapted as described below. Goat anti-mouse particles (1:2 dilution), fluorescent reference particles (dilution was optimized for each lot), and monoclonal antibody 13E3 (1 μg/ml) were premixed in TBS-A reaction buffer (0.02M Tris, 0.15M NaCl, 0.2% bovine serum albumin, 0.01% thimerosal, pH 7.5) and 40 μls was added to each well of the Pandex plate. Synthetic organic compounds (dissolved at 5 mg/ml DMSO and then diluted in TBS-A reaction buffer to 2 μg/ml) or 1:40 dilutions of fermentation broths were added to appropriate wells (20 μl/well) and incubated for approximately 20 minutes at room temperature. To each well was next added 20 μl of CS-045 bPE fluorogen; this final mixture was again incubated for approximately 20 minutes at room temperature in the dark. Wells were then aspirated by vacuum filtration and washed twice with TBS-A reaction buffer, and surface fluorescence was read at 545/575 nm and 590/620 nm using the Screen Machine (IDEXX Laboratories, Westbrook, Me.). Each Pandex plate contained both a negative control (only reaction buffer) and a positive control (LY 282449).
Final concentrations of synthetic organic compounds in high-volume screens was approximately 2 μg/ml and final concentrations of filtered fermentation broths were 1:40 (v/v). Wells that produced greater than 50% inhibition of binding of CS-045 bPE on both the initial screening and on retesting were considered positives. […] This problem was eliminated by inspection of data from each channel.

[3] = Plasma levels of LY 116196 by fluorescent antibody competition assay; assay type: in vivo, mouse; conditions: for concentration at 1 h: 1 hr after third injection; for concentration at 3 h: 3 hr after third injection; for concentration at 6 h: 6 hr after third injection
Experimental: as §4, §3
In the same experiment described in FIG. 4, plasma was prepared from tail blood drawn at 1, 3, 6, and 24 hours after the third subcutaneous injection of LY 116196. Plasma concentrations of LY 116196 (shown in Table 5) were determined directly by the fluorescent antibody competition assay using standards of LY 116196 diluted in TBS-A buffer containing 10% (v/v) normal mouse plasma. This method also has been used to measure blood concentrations of several compounds recognized by monoclonal antibody 13E3 and/or other antibodies produced by the methods described above. Thus, these reagents appear to have general utility for determining […] and tissue concentrations of immunologically positive compounds.

[4] = tested on: diabetic female (Avy/a) mice; test: Fed blood glucose in dexamethasone-treated diabetic female Avy/a mice; assay type: in vivo, mouse; conditions: subcutaneous, three days; FIG. 4
Experimental: In order to determine if any of these novel, non-thiazolidinedione structures had anti-diabetic activity, LY 116196 was administered subcutaneously for three days to female Avy/a mice, which had been made diabetic by implantation of dexamethasone pellets. These dexamethasone-treated mice are characterized by both hyperglycemia and hyperinsulinemia and are models of type II diabetes. Sulfonylureas and other insulin secretagogues have little, if any, effect on blood glucose concentrations in this insulin-resistant animal model. […] Thus, this high-volume screen has detected a novel, anti-diabetic compound, LY 116196.

IC50 (monoclonal antibody 8F1): 1150 nM | IC50 (monoclonal antibody 8D6): 77 nM | IC50 (monoclonal antibody 10E1): 30 nM | IC50 (monoclonal antibody 13E3 [1]): 200 nM
SMILES: Cc1c(C)c2c(c(C)c1O)CCC(C)(COc1ccc(CC3SC(=O)NC3=O)cc1)O2 (stereo not shown) [CS-045]
Displacement of anti-idiotypic antibodies 2E5 and 7E7 (13E3 F(ab')2 fragments): can displace two anti-idiotypic antibodies

IC50 (monoclonal antibody 8F1): 12300 nM | IC50 (monoclonal antibody 8D6): 125 nM | IC50 (monoclonal antibody 10E1): 989 nM | IC50 (monoclonal antibody 13E3 [1]): 1160 nM
SMILES: CC1(COc2ccc(CC3SC(=O)NC3=O)cc2)CCCCC1 (stereo not shown) [Ciglitazone, ciglitazone]

% inhibition in screen (monoclonal antibody 13E3 [2]): 61% | IC50 (monoclonal antibody 13E3 [2]): 4000 nM
SMILES: CCCCCC(=O)c1ccc(OC(C)(C)C(=O)O)cc1 [LY 044047]

% inhibition in screen (monoclonal antibody 13E3 [2]): 60% | IC50 (monoclonal antibody 13E3 [2]): 5000 nM
SMILES: FC(F)(F)c1nc2cc(Cl)c(Cl)cc2[nH]1 [LY 047310]

% inhibition in screen (monoclonal antibody 13E3 [2]): 87% | IC50 (monoclonal antibody 13E3 [2]): 2000 nM
SMILES: CC(C)(Oc1ccc(/C=C/C(=O)c2ccccc2)cc1)C(=O)O [LY 099238]

Plasma concentration of LY 116196 ([3]; 30 mg s.c., 24 hr after third injection): 0 nM | Plasma concentration of LY 116196 ([3]; 100 mg s.c., 24 hr after third injection): 0 nM | concentration at 1 h ([3]; mouse, plasma, sc, 30 mg s.c.): 25 ± 11 µM | concentration at 3 h ([3]; mouse, plasma, sc, 30 mg s.c.): 0.32 ± 0.2 µM | concentration at 6 h ([3]; mouse, plasma, sc, 30 mg s.c.): 0.104 ± 0.052 µM | concentration at 1 h ([3]; mouse, plasma, sc, 100 mg s.c.): 83.3 ± 8 µM | concentration at 3 h ([3]; mouse, plasma, sc, 100 mg s.c.): 6 ± 1.6 µM | concentration at 6 h ([3]; mouse, plasma, sc, 100 mg s.c.): 0.268 ± 0.088 µM | concentration at 1 h ([3]; mouse, plasma, sc, 300 mg s.c.): 528 ± 72 µM | concentration at 3 h ([3]; mouse, plasma, sc, 300 mg s.c.): 24 ± 5.5 µM | concentration at 6 h ([3]; mouse, plasma, sc, 300 mg s.c.): 6.4 ± 3 µM | concentration at 24 h ([3]; mouse, plasma, sc, 300 mg s.c., 24 hr after third injection): 0.452 ± 0.022 µM | Relative fluorescence, sample channel (monoclonal antibody 13E3 [2]; 545/575 nm, 4.0 μM): 360 | Relative fluorescence, reference channel (monoclonal antibody 13E3 [2]; 590/620 nm, 4.0 μM): 6,500 | % inhibition in screen (monoclonal antibody 13E3 [2]): 105% | IC50 (monoclonal antibody 13E3 [2]): 60 nM
SMILES: CC(C)(Oc1ccc(C(=O)c2ccc(OC(C)(C)C(=O)O)cc2)cc1)C(=O)O [LY 116196]
Fed blood glucose [4]: effectively lowered fed blood glucose

% inhibition in screen (monoclonal antibody 13E3 [2]): 90% | IC50 (monoclonal antibody 13E3 [2]): 2000 nM
SMILES: CN(C)C=Nc1nc2c(s1)CCc1sc(C=NN(C)C)nc1-2 [LY 181036]

% inhibition in screen (monoclonal antibody 13E3 [2]): 101% | IC50 (monoclonal antibody 13E3 [2]): 8000 nM
SMILES: CCOC(=O)C(C)OP(=O)(Nc1ccccc1)OC(C)C(=O)OCC (stereo not shown) [LY 222072]

% inhibition in screen (monoclonal antibody 13E3 [2]): 89% | IC50 (monoclonal antibody 13E3 [2]): 2000 nM
SMILES: O=C(O)COc1ccccc1/C=N/N=C/c1ccccc1OCC(=O)O [LY 281809]

IC50 (monoclonal antibody 8F1): 4980 nM | IC50 (monoclonal antibody 8D6): 4760 nM | IC50 (monoclonal antibody 10E1): 1410 nM | IC50 (monoclonal antibody 13E3 [1]): 520 nM
SMILES: O=C1NC(=O)C(Cc2ccc3oc(Cc4ccc5ccccc5c4)nc3c2)S1 (stereo not shown) [LY 282449]

% inhibition in screen (monoclonal antibody 13E3 [2]): 70%
SMILES: CN1C(=CC(=C(C=Cc2ccc3ccccc3[n+]2C)Oc2ccccc2O)c2ccccc2)C=Cc2ccccc21 [LY 283909]

% inhibition in screen (monoclonal antibody 13E3 [2]): 94% | IC50 (monoclonal antibody 13E3 [2]): 250 nM
SMILES: O=P(O)(O)c1ccc(N=Nc2cc(C(F)(F)F)cc3nc(C(F)(F)C(F)F)[nH]c23)cc1 [LY 296345]

% inhibition in screen (monoclonal antibody 13E3 [2]): 88% | IC50 (monoclonal antibody 13E3 [2]): 250 nM
SMILES: O=c1[nH]c(=O)n(Cc2ccc(OCCc3coc(-c4ccccc4)n3)cc2)o1 [LY 301563]

% inhibition in screen (monoclonal antibody 13E3 [2]): 53% | IC50 (monoclonal antibody 13E3 [2]): 3600 nM
SMILES: O=C(CC(=O)Nc1nc(-c2ccc(Cl)cc2)cs1)NCCO [LY 305329]

% inhibition in screen (monoclonal antibody 13E3 [2]): 89% | IC50 (monoclonal antibody 13E3 [2]): 250 nM
SMILES: O=C(O)CC(=O)Nc1nc(-c2ccc(Cl)cc2)cs1 [LY 305334]

% inhibition in screen (monoclonal antibody 13E3 [2]): 65% | IC50 (monoclonal antibody 13E3 [2]): 8000 nM
SMILES: O=C(Nc1ccc(Br)c(Cl)c1)C(F)(C(F)(F)F)C(F)(F)F [LY 800663]

% inhibition in screen (monoclonal antibody 13E3 [2]): 55% | IC50 (monoclonal antibody 13E3 [2]): 4000 nM
SMILES: N#Cc1cc(F)cc(F)c1NC(=O)c1ccc(Cl)c(Cl)c1 [LY 820960]
